Results taken from patent US8399480B2, “Hydroxymethyl pyrrolidines as beta 3 adrenergic receptor agonists” (Merck Sharp & Dohme Corp., priority 2008, dated 2013).
Like-named read-outs stand apart in the source and are kept apart here.

Target: T1, human β3 adrenergic receptor (Homo sapiens, UniProt P13945)
T1 construct: expressed in transfected cells; host or cells: Chinese hamster ovary (CHO) cells, stably transfected
Assay: Functional assay: cAMP production (LANCE TR-FRET) in CHO cells stably transfected with cloned β3 adrenergic receptor
Format: cell-based
How it was run: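 Agonist-stimulated cAMP in CHO cells stably expressing human β3 receptor, 6,000 cells per well in HBSS/HEPES/0.1% BSA with 0.6 mM IBMX, 30 min at room temperature. LANCE TR-FRET readout converted to cAMP via standard curve; maximal stimulation defined with isoproterenol.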

[1] = Table 4, human β3 functional activity, read-out: Human β Binding
[2] = Table 5, read-out: Human β3 Functional
[3] = Table 7, β3AR-cAMP, read-out: Human β3 Functional

T1 sequence (P13945 whole entry): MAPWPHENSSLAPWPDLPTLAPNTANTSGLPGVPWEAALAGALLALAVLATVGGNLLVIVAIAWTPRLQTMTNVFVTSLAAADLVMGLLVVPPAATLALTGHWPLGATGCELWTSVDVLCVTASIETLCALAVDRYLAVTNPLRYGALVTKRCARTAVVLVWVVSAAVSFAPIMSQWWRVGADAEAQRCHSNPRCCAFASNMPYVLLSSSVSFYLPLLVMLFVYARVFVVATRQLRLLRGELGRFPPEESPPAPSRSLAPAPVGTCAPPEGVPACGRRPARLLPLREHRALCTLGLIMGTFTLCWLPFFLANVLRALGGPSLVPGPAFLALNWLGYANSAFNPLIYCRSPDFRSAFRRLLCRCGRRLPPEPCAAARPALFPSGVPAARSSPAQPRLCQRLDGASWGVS

## O=C(Nc1ccc(C[C@@H]2CC[C@H]([C@H](O)c3ccccc3)N2)cc1)C1CCCN1c1cccc(I)c1 (stereo partly shown) [Example 39]
[1]
  EC50: 11 to 100 nM

## O=C(Nc1ccc(C[C@@H]2CC[C@H]([C@H](O)c3ccccc3)N2)cc1)C1CCCN1c1nc2ccccc2s1 (stereo partly shown) [Example 40]
[1]
  EC50: 11 to 100 nM

## O=C(Nc1ccc(C[C@@H]2CC[C@H]([C@H](O)c3ccccc3)N2)cc1)C1CCCN1c1nccs1 (stereo partly shown) [Example 41]
[1]
  EC50: 1 to 10 nM

## O=C(Cc1ccccn1)Nc1ccc(C[C@@H]2CC[C@H]([C@H](O)c3ccccc3)N2)cc1 [Example 43]
[1]
  EC50: 11 to 100 nM

## O=C(Cc1cccnc1)Nc1ccc(C[C@@H]2CC[C@H]([C@H](O)c3ccccc3)N2)cc1 [Example 44]
[1]
  EC50: 101 to 1000 nM

## O=C(Cc1ccncc1)Nc1ccc(C[C@@H]2CC[C@H]([C@H](O)c3ccccc3)N2)cc1 [Example 45]
[1]
  EC50: 1000 to 3000 nM

## O=C(Cc1ncccn1)Nc1ccc(C[C@@H]2CC[C@H]([C@H](O)c3ccccc3)N2)cc1 [Example 46]
[1]
  EC50: 11 to 100 nM

## O=C(CCc1nc(-c2ccccc2)no1)Nc1ccc(C[C@@H]2CC[C@H]([C@H](O)c3ccccc3)N2)cc1 [Example 47]
[1]
  EC50: 1 to 10 nM

## O=C(Cn1ncc2ccccc2c1=O)Nc1ccc(C[C@@H]2CC[C@H]([C@H](O)c3ccccc3)N2)cc1 [Example 49]
[1]
  EC50: 1 to 10 nM

## O=C(Cn1c(=O)[nH]c2ccccc2c1=O)Nc1ccc(C[C@@H]2CC[C@H]([C@H](O)c3ccccc3)N2)cc1 [Example 50]
[1]
  EC50: < 1 nM

## O=C(Cn1nc(Cl)ccc1=O)Nc1ccc(C[C@@H]2CC[C@H]([C@H](O)c3ccccc3)N2)cc1 [Example 51]
[1]
  EC50: 1 to 10 nM

## Cc1cn(CC(=O)Nc2ccc(C[C@@H]3CC[C@H]([C@H](O)c4ccccc4)N3)cc2)c(=O)[nH]c1=O [Example 52]
[1]
  EC50: 1 to 10 nM

## O=C(Cn1[nH]c(=O)c2ccccc2c1=O)Nc1ccc(C[C@@H]2CC[C@H]([C@H](O)c3ccccc3)N2)cc1 [Example 53]
[1]
  EC50: 1 to 10 nM

## NC(=O)c1nn(CC(=O)Nc2ccc(C[C@@H]3CC[C@H]([C@H](O)c4ccccc4)N3)cc2)c(=O)c2ccccc12 [Example 54]
[1]
  EC50: 1 to 10 nM

## O=C(Cn1cnc2sccc2c1=O)Nc1ccc(C[C@@H]2CC[C@H]([C@H](O)c3ccccc3)N2)cc1 [Example 55]
[1]
  EC50: 1 to 10 nM

## O=C(Cn1c(=O)[nH]c(=O)c2ccccc21)Nc1ccc(C[C@@H]2CC[C@H]([C@H](O)c3ccccc3)N2)cc1 [Example 57]
[1]
  EC50: 1 to 10 nM

## Cc1cccc2c(=O)n(CC(=O)Nc3ccc(C[C@@H]4CC[C@H]([C@H](O)c5ccccc5)N4)cc3)cnc12 [Example 58]
[1]
  EC50: 1 to 10 nM

## O=C(Cn1nnc2ccccc2c1=O)Nc1ccc(C[C@@H]2CC[C@H]([C@H](O)c3ccccc3)N2)cc1 [Example 59]
[1]
  EC50: 1 to 10 nM

## Cn1ncc2c(=O)n(CC(=O)Nc3ccc(C[C@@H]4CC[C@H]([C@H](O)c5ccccc5)N4)cc3)cnc21 [Example 60]
[1]
  EC50: 1 to 10 nM

## O=C(Cn1ccc2ncccc2c1=O)Nc1ccc(C[C@@H]2CC[C@H]([C@H](O)c3ccccc3)N2)cc1 [Example 62]
[1]
  EC50: 1 to 10 nM

## O=C(Cn1ccc(=O)[nH]c1=O)Nc1ccc(C[C@@H]2CC[C@H]([C@H](O)c3ccccc3)N2)cc1 [Example 63]
[1]
  EC50: 1 to 10 nM

## O=C(Cn1cccnc1=O)Nc1ccc(C[C@@H]2CC[C@H]([C@H](O)c3ccccc3)N2)cc1 [Example 64]
[1]
  EC50: 1 to 10 nM

## O=C(Cn1ccc(=O)nc1)Nc1ccc(C[C@@H]2CC[C@H]([C@H](O)c3ccccc3)N2)cc1 [Example 66]
[1]
  EC50: 101 to 1000 nM

## O=C(Cn1ccncc1=O)Nc1ccc(C[C@@H]2CC[C@H]([C@H](O)c3ccccc3)N2)cc1 [Example 67]
[1]
  EC50: 11 to 100 nM

## O=C(Cc1n[nH]c(=O)[nH]1)Nc1ccc(C[C@@H]2CC[C@H]([C@H](O)c3ccccc3)N2)cc1 [Example 68]
[1]
  EC50: 11 to 100 nM

## O=C(CC1NC(=O)NC1=O)Nc1ccc(C[C@@H]2CC[C@H]([C@H](O)c3ccccc3)N2)cc1 (stereo partly shown) [Example 69]
[1]
  EC50: 101 to 1000 nM

## O=C(Cc1ccccc1F)Nc1ccc(C[C@@H]2CC[C@H]([C@H](O)c3ccccc3)N2)cc1 [Example 70]
[1]
  EC50: 11 to 100 nM

## O=C(Cc1c(F)cccc1F)Nc1ccc(C[C@@H]2CC[C@H]([C@H](O)c3ccccc3)N2)cc1 [Example 71]
[1]
  EC50: 1 to 10 nM

## O=C(Cc1cccc(F)c1F)Nc1ccc(C[C@@H]2CC[C@H]([C@H](O)c3ccccc3)N2)cc1 [Example 72]
[1]
  EC50: 11 to 100 nM

## O=C(Cc1nnc[nH]1)Nc1ccc(C[C@@H]2CC[C@H]([C@H](O)c3ccccc3)N2)cc1 [Example 73]
[1]
  EC50: 11 to 100 nM

## Cc1nc(CC(=O)Nc2ccc(C[C@@H]3CC[C@H]([C@H](O)c4ccccc4)N3)cc2)no1 [Example 74]
[1]
  EC50: 1 to 10 nM

## O=C(Cc1nnn[nH]1)Nc1ccc(C[C@@H]2CC[C@H]([C@H](O)c3ccccc3)N2)cc1 [Example 75]
[1]
  EC50: 11 to 100 nM

## Cn1nnnc1CC(=O)Nc1ccc(C[C@@H]2CC[C@H]([C@H](O)c3ccccc3)N2)cc1 [Example 76]
[1]
  EC50: 11 to 100 nM

## O=C(Cn1cnnn1)Nc1ccc(C[C@@H]2CC[C@H]([C@H](O)c3ccccc3)N2)cc1 [Example 77]
[1]
  EC50: 11 to 100 nM

## O=C(Cn1ncnn1)Nc1ccc(C[C@@H]2CC[C@H]([C@H](O)c3ccccc3)N2)cc1 [Example 78]
[1]
  EC50: 11 to 100 nM

## Cc1cn(CC(=O)Nc2ccc(C[C@@H]3CC[C@H]([C@H](O)c4ccccc4)N3)cc2)nn1 [Example 79]
[1]
  EC50: 1 to 10 nM

## O=C(Cn1cncn1)Nc1ccc(C[C@@H]2CC[C@H]([C@H](O)c3ccccc3)N2)cc1 [Example 80]
[1]
  EC50: 11 to 100 nM

## O=C(Cn1nccn1)Nc1ccc(C[C@@H]2CC[C@H]([C@H](O)c3ccccc3)N2)cc1 [Example 81]
[1]
  EC50: 11 to 100 nM

## Cc1nonc1CC(=O)Nc1ccc(C[C@@H]2CC[C@H]([C@H](O)c3ccccc3)N2)cc1 [Example 82]
[1]
  EC50: 1 to 10 nM

## CC1=NN(CC(=O)Nc2ccc(C[C@@H]3CC[C@H]([C@H](O)c4ccccc4)N3)cc2)C(=O)C1 [Example 83]
[1]
  EC50: 11 to 100 nM

## O=C(CC1CCCNC1=O)Nc1ccc(C[C@@H]2CC[C@H]([C@H](O)c3ccccc3)N2)cc1 (stereo partly shown) [Example 85]
[1]
  EC50: 101 to 1000 nM

## O=C(CN1CCCC1=O)Nc1ccc(C[C@@H]2CC[C@H]([C@H](O)c3ccccc3)N2)cc1 [Example 87]
[1]
  EC50: 1 to 10 nM

## O=C(CN1CCCCC1=O)Nc1ccc(C[C@@H]2CC[C@H]([C@H](O)c3ccccc3)N2)cc1 [Example 89]
[1]
  EC50: 1 to 10 nM

## O=C(CN1CCOC1=O)Nc1ccc(C[C@@H]2CC[C@H]([C@H](O)c3ccccc3)N2)cc1 [Example 90]
[1]
  EC50: 11 to 100 nM

## O=C(CN1CCSC1=O)Nc1ccc(C[C@@H]2CC[C@H]([C@H](O)c3ccccc3)N2)cc1 [Example 91]
[1]
  EC50: 1 to 10 nM

## O=C(Cc1cnccn1)Nc1ccc(C[C@@H]2CC[C@H]([C@H](O)c3ccccc3)N2)cc1 [Example 94]
[1]
  EC50: 1 to 10 nM

## Cc1ccc(OCC(=O)Nc2ccc(C[C@@H]3CC[C@H]([C@H](O)c4ccccc4)N3)cc2)nn1 [Example 95]
[1]
  EC50: 11 to 100 nM

## Cc1nc2c(CC(=O)Nc3ccc(C[C@@H]4CC[C@H]([C@H](O)c5ccccc5)N4)cc3)cccn2n1 [Example 97]
[1]
  EC50: 1000 to 3000 nM

## O=C(CN1CCCOC1=O)Nc1ccc(C[C@@H]2CC[C@H]([C@H](O)c3ccccc3)N2)cc1 [Example 98]
[1]
  EC50: 1 to 10 nM

## CN1CCCN(CC(=O)Nc2ccc(C[C@@H]3CC[C@H]([C@H](O)c4ccccc4)N3)cc2)C1=O [Example 99]
[1]
  EC50: 11 to 100 nM

## C[C@@H](C(=O)Nc1ccc(C[C@@H]2CC[C@H]([C@H](O)c3ccccc3)N2)cc1)c1csc(N)n1 [Example 104]
[2]
  EC50: < 1 nM

## C[C@H](C(=O)Nc1ccc(C[C@@H]2CC[C@H]([C@H](O)c3ccccc3)N2)cc1)c1csc(N)n1 [Example 105]
[2]
  EC50: < 1 nM

## O=C(Nc1ccc(CC2CCC(C(O)c3ccccc3)N2)cc1)C1Cc2ccccc2C1 (stereo not shown) [Example 106]
[2]
  EC50: 11 to 100 nM

## Nc1nc(C(CCF)C(=O)Nc2ccc(CC3CCC(C(O)c4ccccc4)N3)cc2)cs1 (stereo not shown) [Example 222]
[2]
  EC50: < 1 nM

## O=S(=O)(Nc1ccc(C[C@@H]2CC[C@H]([C@H](O)c3ccccc3)N2)cc1)c1ccc(-c2nc(-c3ccc(C(F)(F)F)cc3)cs2)cc1 [Example 233, N-[4-({(2S,5R)-5-[(R)-hydroxy(phenyl)methyl]pyrrolidin-2-yl}methyl)phenyl]-4-{4-[4-(trifluoromethyl)phenyl]-1,3-thiazol-2-yl}benzenesulfonamide]
Given as a range, cAMP, CHO cells, read-out: human β3 functional activity
  EC50: 1 to 10 nM

## O=S(=O)(Nc1ccc(C[C@@H]2CC[C@H]([C@H](O)c3ccccc3)N2)cc1)c1cccc2ccccc12 [Example 235]
[3]
  EC50: 101 to 1000 nM

## O=S(=O)(Nc1ccc(C[C@@H]2CC[C@H]([C@H](O)c3ccccc3)N2)cc1)c1cccc2ccncc12 [Example 236]
[3]
  EC50: 1000 to 3000 nM

## O=S(=O)(Nc1ccc(C[C@@H]2CC[C@H]([C@H](O)c3ccccc3)N2)cc1)c1cccc2cccnc12 [Example 237]
[3]
  EC50: 101 to 1000 nM

## O=S(=O)(Nc1ccc(C[C@@H]2CC[C@H]([C@H](O)c3ccccc3)N2)cc1)c1cccc2ncccc12 [Example 238]
[3]
  EC50: 101 to 1000 nM

## O=S(=O)(Nc1ccc(C[C@@H]2CC[C@H]([C@H](O)c3ccccc3)N2)cc1)c1ccc2ncsc2c1 [Example 239]
[3]
  EC50: 11 to 100 nM

## O=S(=O)(Nc1ccc(C[C@@H]2CC[C@H]([C@H](O)c3ccccc3)N2)cc1)c1ccc(-n2cccn2)cc1 [Example 240]
[3]
  EC50: 101 to 1000 nM

## O=S(=O)(Nc1ccc(C[C@@H]2CC[C@H]([C@H](O)c3ccccc3)N2)cc1)c1ccc(-c2cocn2)cc1 [Example 241]
[3]
  EC50: 11 to 100 nM

## Cc1nnc(-c2cccc(S(=O)(=O)Nc3ccc(C[C@@H]4CC[C@H]([C@H](O)c5ccccc5)N4)cc3)c2)o1 [Example 242]
[3]
  EC50: 101 to 1000 nM

## Cc1nccc(-c2cccc(S(=O)(=O)Nc3ccc(C[C@@H]4CC[C@H]([C@H](O)c5ccccc5)N4)cc3)c2)n1 [Example 243]
[3]
  EC50: 101 to 1000 nM

## Cn1cnc(S(=O)(=O)Nc2ccc(C[C@@H]3CC[C@H]([C@H](O)c4ccccc4)N3)cc2)c1 [Example 246]
[3]
  EC50: 101 to 1000 nM

## Cc1nn(C)c(Cl)c1S(=O)(=O)Nc1ccc(C[C@@H]2CC[C@H]([C@H](O)c3ccccc3)N2)cc1 [Example 247]
[3]
  EC50: 1000 to 3000 nM

## O=S(=O)(Cc1ccccn1)Nc1ccc(C[C@@H]2CC[C@H]([C@H](O)c3ccccc3)N2)cc1 [Example 248]
[3]
  EC50: 101 to 1000 nM
